# Measurements: ChEMBL document CHEMBL2331192, “Naphthalenyl derivatives for hitting P-gp/MRP1/BCRP transporters” (Bioorg Med Chem, 2013)
# Molecular target: Multidrug resistance-associated protein 1 (Homo sapiens, UniProt P33527)
# Assay: Activity at MRP1 (unknown origin) expressed in MDCK cells assessed as interference calcein-AM efflux incubated for 30 mins prior to calcein-Am addition measured after 30 mins by fluorometric analysis
# Format: cell-based
# Settings: not given; call rule not given here
# Multidrug resistance-associated protein 1, sequence (P33527 whole entry): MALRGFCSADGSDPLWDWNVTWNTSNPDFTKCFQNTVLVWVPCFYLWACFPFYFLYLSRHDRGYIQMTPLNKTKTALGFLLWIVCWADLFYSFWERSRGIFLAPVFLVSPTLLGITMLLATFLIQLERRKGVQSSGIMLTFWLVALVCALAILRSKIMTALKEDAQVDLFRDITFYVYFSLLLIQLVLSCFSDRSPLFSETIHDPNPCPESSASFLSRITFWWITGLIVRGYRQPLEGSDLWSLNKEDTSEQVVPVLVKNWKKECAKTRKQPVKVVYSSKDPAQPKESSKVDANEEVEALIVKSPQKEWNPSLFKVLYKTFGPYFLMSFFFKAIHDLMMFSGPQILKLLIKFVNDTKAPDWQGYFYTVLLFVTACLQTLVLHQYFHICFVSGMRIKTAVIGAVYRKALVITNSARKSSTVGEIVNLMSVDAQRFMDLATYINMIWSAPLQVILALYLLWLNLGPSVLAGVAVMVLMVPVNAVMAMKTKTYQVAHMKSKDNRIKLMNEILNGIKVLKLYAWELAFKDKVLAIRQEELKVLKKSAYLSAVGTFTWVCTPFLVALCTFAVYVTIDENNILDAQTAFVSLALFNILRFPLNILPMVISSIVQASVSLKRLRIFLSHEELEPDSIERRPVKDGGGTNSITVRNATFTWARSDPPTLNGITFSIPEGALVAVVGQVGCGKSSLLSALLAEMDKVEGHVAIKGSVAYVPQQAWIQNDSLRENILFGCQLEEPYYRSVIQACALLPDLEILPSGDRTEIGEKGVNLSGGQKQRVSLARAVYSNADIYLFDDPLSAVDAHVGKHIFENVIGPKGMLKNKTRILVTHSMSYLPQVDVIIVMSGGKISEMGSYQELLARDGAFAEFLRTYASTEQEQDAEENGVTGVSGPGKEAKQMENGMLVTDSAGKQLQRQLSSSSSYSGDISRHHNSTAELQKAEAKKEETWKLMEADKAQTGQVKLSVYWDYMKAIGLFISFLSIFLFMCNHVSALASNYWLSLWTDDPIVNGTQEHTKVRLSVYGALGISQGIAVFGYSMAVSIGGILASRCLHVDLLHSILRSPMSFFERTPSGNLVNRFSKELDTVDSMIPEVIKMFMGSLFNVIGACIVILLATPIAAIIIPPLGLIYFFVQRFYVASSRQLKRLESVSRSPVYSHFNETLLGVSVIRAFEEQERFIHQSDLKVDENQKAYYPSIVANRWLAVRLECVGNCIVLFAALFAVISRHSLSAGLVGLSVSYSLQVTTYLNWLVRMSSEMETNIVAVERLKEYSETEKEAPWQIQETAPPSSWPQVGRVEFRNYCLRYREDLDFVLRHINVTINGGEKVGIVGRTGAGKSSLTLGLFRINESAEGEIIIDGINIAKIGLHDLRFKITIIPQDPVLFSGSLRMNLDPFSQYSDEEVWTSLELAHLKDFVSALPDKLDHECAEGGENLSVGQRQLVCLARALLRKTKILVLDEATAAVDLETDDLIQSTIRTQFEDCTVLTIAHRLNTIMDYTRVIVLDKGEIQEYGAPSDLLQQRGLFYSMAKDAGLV
row,SMILES,EC50 [µM]
1,COc1cc2c(cc1OC)CN(CCCC1CCCc3c(OC)cccc31)CC2 (centres undefined),> 100
2,COc1ccc2cc(-c3nc(CN4CCc5cc(OC)c(OC)cc5C4)co3)ccc2c1,14.7
3,COc1cc2c(cc1OC)CN(Cc1ccc(-c3ccc(O)cc3)cc1)CC2,9.3
4,COc1cc2c(cc1OC)CN(Cc1csc(-c3ccc4cc(F)ccc4c3)n1)CC2,8.8
5,COc1cc2c(cc1OC)CN(Cc1csc(-c3ccc4ccccc4c3)n1)CC2,3.2
6,COc1cc2c(cc1OC)CN(Cc1coc(-c3ccc4cc(Br)ccc4c3)n1)CC2,> 100
7,COc1cc2c(cc1OC)CN(CC/C=C1\CCCc3c(OC)cccc31)CC2,2.8
8,COc1cc2c(cc1OC)CN(Cc1ccc(-c3ccc4ccccc4c3)o1)CC2,> 100
9,COc1ccc2cc(-c3ccc(CN4CCc5cc(OC)c(OC)cc5C4)o3)ccc2c1,> 100

# Molecular target: T1, Broad substrate specificity ATP-binding cassette transporter ABCG2 (Homo sapiens, UniProt Q9UNQ0)
# T1 sequence (Q9UNQ0 whole entry): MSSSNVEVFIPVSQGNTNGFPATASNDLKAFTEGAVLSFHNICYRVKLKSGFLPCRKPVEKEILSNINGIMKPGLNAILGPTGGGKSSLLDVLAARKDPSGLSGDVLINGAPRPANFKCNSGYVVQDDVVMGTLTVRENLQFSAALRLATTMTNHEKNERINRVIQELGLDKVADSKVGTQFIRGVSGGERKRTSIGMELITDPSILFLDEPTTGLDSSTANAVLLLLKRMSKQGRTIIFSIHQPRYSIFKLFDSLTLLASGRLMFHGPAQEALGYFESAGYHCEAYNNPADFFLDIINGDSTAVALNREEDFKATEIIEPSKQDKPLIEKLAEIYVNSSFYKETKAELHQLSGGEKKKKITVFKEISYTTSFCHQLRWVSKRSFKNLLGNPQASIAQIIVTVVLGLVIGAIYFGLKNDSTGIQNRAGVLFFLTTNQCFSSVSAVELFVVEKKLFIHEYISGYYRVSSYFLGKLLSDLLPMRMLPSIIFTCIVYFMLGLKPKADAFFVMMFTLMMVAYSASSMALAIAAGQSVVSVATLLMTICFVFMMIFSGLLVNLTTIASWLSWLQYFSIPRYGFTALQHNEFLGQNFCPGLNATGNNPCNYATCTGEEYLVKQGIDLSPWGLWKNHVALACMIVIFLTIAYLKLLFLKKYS
# Assay: Activity at BCRP (unknown origin) expressed in MDCK cells assessed as interference with rhodamine-123 efflux at 200 nM
# Format: cell-based
# Settings: 0.2 µM
row,SMILES,Activity
1,COc1ccc2cc(-c3nc(CN4CCc5cc(OC)c(OC)cc5C4)co3)ccc2c1,Not Active
2,COc1cc2c(cc1OC)CN(Cc1csc(-c3ccc4cc(Br)ccc4c3)n1)CC2,Not Active
3,COc1ccc2cc(-c3nc(CN4CCc5cc(OC)c(OC)cc5C4)cs3)ccc2c1,Not Active

# Tested on: not listed separately
# Assay: Apparent permeability across human Caco2 cells after 2 hrs
# Format: ADME, cell-based
# Settings: Caco-2
row,SMILES,Papp at 2 h [×10⁻⁶ cm/s]
1,COc1ccc2cc(-c3nc(CN4CCc5cc(OC)c(OC)cc5C4)co3)ccc2c1,0.38
2,COc1cc2c(cc1OC)CN(Cc1csc(-c3ccc4cc(Br)ccc4c3)n1)CC2,0.59
3,COc1ccc2cc(-c3nc(CN4CCc5cc(OC)c(OC)cc5C4)cs3)ccc2c1,0.6
4,COc1cc2c(cc1OC)CN(Cc1coc(-c3ccc4cc(F)ccc4c3)n1)CC2,0.082
5,COc1cc2c(cc1OC)CN(Cc1csc(-c3ccc4cc(F)ccc4c3)n1)CC2,0.95
6,COc1cc2c(cc1OC)CN(Cc1coc(-c3ccc4cc(O)ccc4c3)n1)CC2,0.157
7,COc1cc2c(cc1OC)CN(Cc1csc(-c3ccc4ccccc4c3)n1)CC2,2.37
8,COc1cc2c(cc1OC)CN(Cc1coc(-c3ccc4cc(Br)ccc4c3)n1)CC2,0.32
9,COc1cc2c(cc1OC)CN(Cc1coc(-c3ccc4ccccc4c3)n1)CC2,0.038
10,COc1cc2c(cc1OC)CN(Cc1ccc(-c3ccc4ccccc4c3)o1)CC2,0.33
11,COc1ccc2cc(-c3ccc(CN4CCc5cc(OC)c(OC)cc5C4)o3)ccc2c1,0.408

# Molecular target: T2, ATP-dependent translocase ABCB1 (Homo sapiens, UniProt P08183)
# T2 sequence (P08183 whole entry): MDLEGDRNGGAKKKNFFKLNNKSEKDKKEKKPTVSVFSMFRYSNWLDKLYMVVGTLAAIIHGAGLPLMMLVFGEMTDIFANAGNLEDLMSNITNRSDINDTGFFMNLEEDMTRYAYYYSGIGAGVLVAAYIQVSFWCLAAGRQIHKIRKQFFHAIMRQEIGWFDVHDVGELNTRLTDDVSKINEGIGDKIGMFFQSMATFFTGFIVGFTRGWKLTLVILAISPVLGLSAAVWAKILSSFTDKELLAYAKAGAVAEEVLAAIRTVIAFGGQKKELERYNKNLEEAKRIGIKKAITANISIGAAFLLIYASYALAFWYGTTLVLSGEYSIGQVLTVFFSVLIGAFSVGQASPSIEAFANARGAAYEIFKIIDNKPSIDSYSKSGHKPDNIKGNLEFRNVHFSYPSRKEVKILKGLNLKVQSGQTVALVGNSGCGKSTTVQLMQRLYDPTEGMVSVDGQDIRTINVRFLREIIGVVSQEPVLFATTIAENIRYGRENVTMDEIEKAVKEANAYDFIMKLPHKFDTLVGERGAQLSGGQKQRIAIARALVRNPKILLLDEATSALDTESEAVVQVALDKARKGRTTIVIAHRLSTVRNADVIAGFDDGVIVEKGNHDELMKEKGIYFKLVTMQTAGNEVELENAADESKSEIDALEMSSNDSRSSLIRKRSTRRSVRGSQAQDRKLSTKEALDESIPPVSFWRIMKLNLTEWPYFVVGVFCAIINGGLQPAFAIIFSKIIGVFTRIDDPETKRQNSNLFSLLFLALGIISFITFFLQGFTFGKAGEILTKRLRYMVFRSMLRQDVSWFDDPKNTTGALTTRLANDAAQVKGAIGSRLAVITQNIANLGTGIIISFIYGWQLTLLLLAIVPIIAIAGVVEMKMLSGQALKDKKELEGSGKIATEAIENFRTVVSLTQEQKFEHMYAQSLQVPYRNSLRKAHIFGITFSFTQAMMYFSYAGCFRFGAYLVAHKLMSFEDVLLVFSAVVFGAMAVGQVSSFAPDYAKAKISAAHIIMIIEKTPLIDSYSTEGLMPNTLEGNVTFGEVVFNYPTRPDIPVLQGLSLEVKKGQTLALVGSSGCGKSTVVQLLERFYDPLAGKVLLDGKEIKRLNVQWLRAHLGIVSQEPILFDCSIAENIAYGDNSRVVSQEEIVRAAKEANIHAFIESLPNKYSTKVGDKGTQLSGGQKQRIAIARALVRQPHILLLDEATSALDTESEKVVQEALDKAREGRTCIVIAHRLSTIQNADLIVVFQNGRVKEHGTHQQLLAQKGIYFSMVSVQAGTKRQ
# Assay: Activity at MDR1 (unknown origin) expressed in MDCK cells assessed as ATPase activity after 2 hrs by ATPlite assay
# Format: cell-based
# Settings: not given
row,SMILES,Activity
1,COc1ccc2cc(-c3nc(CN4CCc5cc(OC)c(OC)cc5C4)co3)ccc2c1,Active
2,COc1cc2c(cc1OC)CN(Cc1csc(-c3ccc4cc(Br)ccc4c3)n1)CC2,Active
3,COc1ccc2cc(-c3nc(CN4CCc5cc(OC)c(OC)cc5C4)cs3)ccc2c1,Active
4,COc1cc2c(cc1OC)CN(Cc1coc(-c3ccc4cc(F)ccc4c3)n1)CC2,Not Active
5,COc1cc2c(cc1OC)CN(Cc1csc(-c3ccc4cc(F)ccc4c3)n1)CC2,Not Active
6,COc1cc2c(cc1OC)CN(Cc1coc(-c3ccc4cc(O)ccc4c3)n1)CC2,Not Active
7,COc1cc2c(cc1OC)CN(Cc1csc(-c3ccc4ccccc4c3)n1)CC2,Not Active
8,COc1cc2c(cc1OC)CN(Cc1coc(-c3ccc4cc(Br)ccc4c3)n1)CC2,Not Active
9,COc1cc2c(cc1OC)CN(Cc1coc(-c3ccc4ccccc4c3)n1)CC2,Not Active
10,COc1cc2c(cc1OC)CN(Cc1ccc(-c3ccc4ccccc4c3)o1)CC2,Not Active
11,COc1ccc2cc(-c3ccc(CN4CCc5cc(OC)c(OC)cc5C4)o3)ccc2c1,Not Active

# Molecular target: T2, ATP-dependent translocase ABCB1
# Assay: Activity at MDR1 (unknown origin) expressed in MDCK cells assessed as interference with calcein-AM efflux incubated for 30 mins prior to calcein-Am addition measured after 30 mins by fluorometric analysis
# Format: cell-based
# Settings: not given
row,SMILES,EC50 [µM]
1,COc1ccc2cc(-c3nc(CN4CCc5cc(OC)c(OC)cc5C4)co3)ccc2c1,0.6
2,COc1cc2c(cc1OC)CN(Cc1ccc(-c3ccc(O)cc3)cc1)CC2,0.69
3,COc1cc2c(cc1OC)CN(Cc1csc(-c3ccc4cc(F)ccc4c3)n1)CC2,4.8
4,COc1cc2c(cc1OC)CN(Cc1csc(-c3ccc4ccccc4c3)n1)CC2,3.5
5,COc1cc2c(cc1OC)CN(Cc1coc(-c3ccc4cc(Br)ccc4c3)n1)CC2,1.8
6,COc1cc2c(cc1OC)CN(CC/C=C1\CCCc3c(OC)cccc31)CC2,1.5
7,COc1cc2c(cc1OC)CN(Cc1coc(-c3ccc4ccccc4c3)n1)CC2,2.3
8,COc1cc2c(cc1OC)CN(Cc1ccc(-c3ccc4ccccc4c3)o1)CC2,7.1
9,COc1ccc2cc(-c3ccc(CN4CCc5cc(OC)c(OC)cc5C4)o3)ccc2c1,2.9

# Molecular target: T1, Broad substrate specificity ATP-binding cassette transporter ABCG2
# Assay: Activity at BCRP (unknown origin) expressed in MDCK cells assessed as interference with rhodamine-123 efflux
# Format: cell-based
# Settings: not given
row,SMILES,EC50 [µM]
1,COc1cc2c(cc1OC)CN(Cc1ccc(-c3ccc(O)cc3)cc1)CC2,73
